Activity calls are given as the source filed them. The rule behind the calls is not given here.
Assays:
[1] = target: T1, Bromodomain-containing protein 3 (Homo sapiens, UniProt Q15059); test: Inhibition of BRD3-BD1 domain (unknown origin) incubated for 6 hrs by HTRF method
Homo sapiens [2] = species: Homo sapiens; test: Selectivity ratio of IC50 for BRD3-BD1 (unknown origin) to IC50 for BRD3-BD2 (unknown origin)
[3] = target: T1, Bromodomain-containing protein 3; test: Inhibition of BRD3-BD2 (unknown origin) incubated for 6 hrs by HTRF method
Homo sapiens [4] = species: Homo sapiens; test: Selectivity ratio of IC50 for BRD4-BD1 (unknown origin) to IC50 for BRD4-BD2 (unknown origin)
[5] = target: T2, Bromodomain-containing protein 4 (Homo sapiens, UniProt O60885); test: Inhibition of BRD4-BD2 (unknown origin) incubated for 6 hrs by HTRF method
[6] = target: T2, Bromodomain-containing protein 4; test: Binding affinity to human partial length BRD4-BD2 (K333 to E460 residues) expressed in bacterial system assessed as dissociation constant by BROMOscan method
[7] = target: T3, Bromodomain-containing protein 2 (Homo sapiens, UniProt P25440); test: Inhibition of BRD2-BD2 (unknown origin) incubated for 6 hrs by HTRF method
T3 sequence (P25440 whole entry): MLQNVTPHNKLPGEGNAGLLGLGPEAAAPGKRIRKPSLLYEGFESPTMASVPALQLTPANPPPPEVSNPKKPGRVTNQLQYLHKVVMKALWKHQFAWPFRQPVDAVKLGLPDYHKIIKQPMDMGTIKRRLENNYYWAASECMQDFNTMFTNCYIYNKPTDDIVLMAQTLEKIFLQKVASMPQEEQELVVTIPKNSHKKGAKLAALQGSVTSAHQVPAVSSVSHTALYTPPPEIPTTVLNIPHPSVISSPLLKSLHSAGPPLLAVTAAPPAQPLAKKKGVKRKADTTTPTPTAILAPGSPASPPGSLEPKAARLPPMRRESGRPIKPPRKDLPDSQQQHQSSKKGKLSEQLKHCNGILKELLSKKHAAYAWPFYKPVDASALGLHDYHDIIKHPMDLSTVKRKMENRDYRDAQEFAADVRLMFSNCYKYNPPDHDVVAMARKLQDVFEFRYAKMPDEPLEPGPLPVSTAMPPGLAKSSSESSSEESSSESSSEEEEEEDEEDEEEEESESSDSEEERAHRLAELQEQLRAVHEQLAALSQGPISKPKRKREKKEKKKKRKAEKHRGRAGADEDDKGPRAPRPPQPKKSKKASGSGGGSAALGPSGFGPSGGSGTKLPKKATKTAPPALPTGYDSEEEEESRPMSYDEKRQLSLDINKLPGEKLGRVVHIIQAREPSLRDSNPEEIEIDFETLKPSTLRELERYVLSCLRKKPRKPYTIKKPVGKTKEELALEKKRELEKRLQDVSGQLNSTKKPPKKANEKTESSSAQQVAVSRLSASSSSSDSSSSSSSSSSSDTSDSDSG

[8] = target: T1, Bromodomain-containing protein 3; test: Binding affinity to human partial length BRD3-BD2 (G306 to P416) expressed in bacterial system assessed as dissociation constant by BROMOscan method
[9] = target: T3, Bromodomain-containing protein 2; test: Binding affinity to human partial length BRD2-BD2 (E348 to D455) expressed in bacterial system assessed as dissociation constant by BROMOscan method
[10] = target: T2, Bromodomain-containing protein 4; test: Inhibition of BRD4-BD2 (unknown origin) (K333 to E460 residues) expressed in bacterial system assessed as dissociation constant by BROMOscan method
[11] = target: T2, Bromodomain-containing protein 4; test: Inhibition of BRD4-BD1 (unknown origin) (N44 to E168 residues) expressed in bacterial expression system assessed as dissociation constant by BROMOscan method
MOLM-14 [12] = test: cells; details: Homo sapiens, MOLM-14, 72 h
Description: Cytotoxicity against human MOLM-14 cells assessed as reduction in cell viability incubated for 72 hrs

K562 [13] = test: Cytotoxicity against human K562 cells assessed as reduction in cell viability incubated for 72 hrs; assay type: functional, cell-based; details: K562, 72 h
CCRF-CEM = test: Cytotoxicity against human CCRF-CEM cells assessed as reduction in cell viability incubated for 72 hrs; assay type: functional, cell-based
NB-4 = test: Cytotoxicity against human NB-4 cells assessed as reduction in cell viability incubated for 72 hrs; assay type: functional, cell-based; details: NB-4, 72 h
MOLM-14 [14] = test: Downregulation of Myc expression in human MOLM-14 cells incubated for 2 hrs by RT-PCR analysis; assay type: functional, cell-based; details: dose 5.0 µM
K562 [15] = test: Inhibition of IFNgamma induced MHC-1 expression in human K562 cells treated for 48 hrs by flow cytometric analysis; assay type: functional, cell-based; details: dose 0.2-20 µM
[16] = target: T1, Bromodomain-containing protein 3; test: Inhibition of BRD3-BD1 (unknown origin) assessed as dissociation constant by TR-FRET method
[17] = target: T2, Bromodomain-containing protein 4; test: Inhibition of BRD4-BD1 (unknown origin) incubated for 6 hrs by HTRF method

T1 sequence (Q15059 whole entry, the tested form may be a part): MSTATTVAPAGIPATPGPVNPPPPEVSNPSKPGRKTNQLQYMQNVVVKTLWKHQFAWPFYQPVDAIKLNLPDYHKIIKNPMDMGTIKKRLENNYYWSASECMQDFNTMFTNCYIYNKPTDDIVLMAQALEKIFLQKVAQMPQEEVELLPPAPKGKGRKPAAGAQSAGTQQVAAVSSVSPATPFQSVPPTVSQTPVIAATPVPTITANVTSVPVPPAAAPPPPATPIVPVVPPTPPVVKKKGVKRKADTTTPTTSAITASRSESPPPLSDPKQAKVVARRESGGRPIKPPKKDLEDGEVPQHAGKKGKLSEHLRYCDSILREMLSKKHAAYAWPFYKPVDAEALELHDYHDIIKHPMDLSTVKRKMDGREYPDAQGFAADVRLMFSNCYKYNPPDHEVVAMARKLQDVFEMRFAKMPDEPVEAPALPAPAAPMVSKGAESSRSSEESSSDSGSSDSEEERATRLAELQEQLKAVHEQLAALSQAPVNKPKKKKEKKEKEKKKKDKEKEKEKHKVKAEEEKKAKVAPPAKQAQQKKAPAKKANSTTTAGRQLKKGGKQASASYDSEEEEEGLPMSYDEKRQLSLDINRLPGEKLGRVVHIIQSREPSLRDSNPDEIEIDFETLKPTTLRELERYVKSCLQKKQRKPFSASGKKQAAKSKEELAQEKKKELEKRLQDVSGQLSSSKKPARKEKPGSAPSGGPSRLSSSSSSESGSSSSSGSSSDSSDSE

Structure (SMILES)	IC50 [1] [nM]	Ratio IC50 (Homo sapiens [2])	IC50 [3] [nM]	also measured
CC(=O)N1CCc2c(sc3nc(SCC(=O)Nc4cc(F)ccc4F)n(Cc4ccco4)c(=O)c23)C1	4500	24	170	–
CCOc1ccccc1NC(=O)CSc1nc2sc3c(c2c(=O)n1Cc1ccco1)CCN(C(C)=O)C3	4400	23	150	–
COc1ccc(NC(=O)CSc2nc3sc4c(c3c(=O)n2Cc2ccco2)CCN(C(C)=O)C4)cc1	2200	6	570	–
CC(=O)N1CCc2c(sc3nc(SCC(=O)Nc4cc(Cl)ccc4C)n(-c4ccc(C)o4)c(=O)c23)C1	7800	19	410	–
O=C1c2ccc(Oc3cccc(Oc4ccc5c(c4)C(=O)N(c4ccc(O)cc4)C5=O)c3)cc2C(=O)N1c1ccc(O)cc1	–	–	–	Ratio IC50 (Homo sapiens [4]): 0.4; IC50 [5]: 3200 nM
CCC(=O)N1CCc2c(sc3[nH]c(=O)n(C4CCCCC4)c(=O)c23)C1	> 25000	–	–	–
CC(=O)N1CCc2c(sc3nc(SCC(=O)Nc4ccccc4Cl)n(Cc4ccco4)c(=O)c23)C1	2800	23	100	–
CC(=O)c1cccc(NC(=O)CSc2nc3sc4c(c3c(=O)n2Cc2ccco2)CCN(C(C)=O)C4)c1	4100	9	170	–
CC(=O)N1CCc2c(sc3nc(SCC(=O)Nc4cc(Cl)ccc4C)n(Cc4ccco4)c(=O)c23)C1	8500	–	85	IC50 [6]: 775 nM; IC50 [7]: 120 nM; IC50 [8]: 325 nM; Ratio IC50 (Homo sapiens [4]): 4.4; IC50 [5]: 900 nM; IC50 [9]: 2600 nM
CC(=O)N1CCc2c(sc3nc(SCC(=O)Nc4cccc(Cl)c4)n(Cc4ccco4)c(=O)c23)C1	3100	9	490	–
CC(=O)N1CCc2c(sc3nc(SCC(=O)Nc4ccc(F)c(F)c4)n(Cc4ccco4)c(=O)c23)C1	4900	8	470	–
CC(=O)N1CCc2c(sc3nc(SCC(=O)Nc4ccc(F)cc4F)n(Cc4ccco4)c(=O)c23)C1	3500	13	380	–
CC(=O)N1CCc2c(sc3nc(SCC(=O)Nc4ccccc4)n(-c4ccccc4)c(=O)c23)C1	> 25000	> 5	5500	–
CCc1cccc(C)c1NS(=O)(=O)c1cc(-c2c(C)noc2C)ccc1C	–	–	–	Ratio IC50 (Homo sapiens [4]): 7.8; IC50 [5]: 1100 nM
CC(=O)N1CCc2c(sc3nc(SCC(=O)Nc4ccc(Cl)cc4)n(Cc4ccco4)c(=O)c23)C1	4500	8	530	–
CC(=O)N1CCc2c(sc3nc(SCC(=O)Nc4ccc(C)cc4)n(Cc4ccco4)c(=O)c23)C1	3200	5	630	–
CSc1cccc(NC(=O)CSc2nc3sc4c(c3c(=O)n2Cc2ccco2)CCN(C(C)=O)C4)c1	6500	11	410	–
CC(=O)N1CCc2c(sc3nc(SCC(=O)Nc4cc(Cl)ccc4C)n(-c4ccccc4)c(=O)c23)C1	> 25000	> 4	6300	–
CC(=O)N1c2ccc(C3=CCNCC3)cc2N(Cc2ccccc2CO)C[C@@H]1C1CC1	–	–	–	Kd [10]: 63 nM; Kd [11]: 3000 nM

Structure (SMILES)	IC50 [1] [nM]	Ratio IC50 (Homo sapiens [2])	IC50 [3] [nM]	also measured
CC(=O)N1CCc2c(sc3nc(SCC(=O)Nc4ccc(C)c(F)c4)n(Cc4ccco4)c(=O)c23)C1	4200	31	210	–
CCOc1ccc(NC(=O)CSc2nc3sc4c(c3c(=O)n2Cc2ccco2)CCN(C(C)=O)C4)cc1	1300	4	880	–
COc1cccc(NC(=O)CSc2nc3sc4c(c3c(=O)n2Cc2ccco2)CCN(C(C)=O)C4)c1	14000	9	300	–
CC(=O)N1CCc2c(sc3nc(SCC(=O)Nc4cccc(C)c4)n(Cc4ccco4)c(=O)c23)C1	–	12	440	–
CC(=O)N1CCc2c(sc3nc(SCC(=O)Nc4ccc(F)c(Cl)c4)n(Cc4ccco4)c(=O)c23)C1	3800	7	740	–
COc1cc(OC)c2c(=O)[nH]c(-c3cc(C)c(OCCO)c(C)c3)nc2c1 [APABETALONE]	–	–	–	EC50 (MOLM-14 [12]): 6700 nM; EC50 (K562 [13]): > 5000 nM; EC50 (CCRF-CEM): > 5000 nM; EC50 (NB-4): > 5000 nM; Activity (MOLM-14 [14]): Dose-Dependent Effect
CC(=O)N1CCc2c(sc3nc(SCC(=O)Nc4ccc(F)cc4)n(Cc4ccco4)c(=O)c23)C1	3600	7	420	–
CC(=O)N1CCc2c(sc3nc(SCC(=O)Nc4ccccc4F)n(Cc4ccco4)c(=O)c23)C1	7500	20	210	–
Cc1sc2c(c1C)C(c1ccc(Cl)cc1)=N[C@@H](CC(=O)Nc1ccc(O)cc1)c1nnc(C)n1-2 [BIRABRESIB]	–	–	–	EC50 (MOLM-14 [12]): 80 nM; Activity (K562 [15]): Active; Activity (MOLM-14 [14]): Dose-Dependent Effect
CC(=O)N1CCc2c(sc3nc(SCC(=O)Nc4ccccc4C)n(Cc4ccco4)c(=O)c23)C1	3000	15	220	–
CC(=O)Nc1c(F)cc(C(=O)N[C@H]2CC[C@H](O)CC2)cc1O[C@@H](C)c1ccccc1 [GSK046]	–	–	–	EC50 (MOLM-14 [12]): 14000 nM; IC50 [16]: 3600 nM; EC50 (K562 [13]): > 5000 nM; EC50 (CCRF-CEM): > 5000 nM; EC50 (NB-4): > 5000 nM; Activity (MOLM-14 [14]): Dose-Dependent Effect
CC(=O)N1CCc2c(sc3nc(SCC(=O)Nc4ccccc4)n(Cc4ccco4)c(=O)c23)C1	14000	100	140	–
Cc1ccc(-c2c(C)noc2C)cc1S(=O)(=O)Nc1cccc(C)c1C	–	–	–	Ratio IC50 (Homo sapiens [4]): 12; IC50 [5]: 900 nM
COc1cc(C(=O)C(=Cc2ccncc2)c2nc3ccccc3o2)cc(OC)c1OC	–	–	–	Ratio IC50 (Homo sapiens [4]): 5.4; IC50 [5]: 800 nM
CC(=O)c1ccc(NC(=O)CSc2nc3sc4c(c3c(=O)n2Cc2ccco2)CCN(C(C)=O)C4)cc1	1500	4	320	–
Cc1nn(CCO)c(C)c1-c1c(C)c(-c2ccc(O)cc2)nc(N)c1C#N	–	–	–	IC50 [17]: 8200 nM; Ratio IC50 (Homo sapiens [4]): 9; IC50 [5]: 900 nM
COc1ccccc1NC(=O)CSc1nc2sc3c(c2c(=O)n1Cc1ccco1)CCN(C(C)=O)C3	–	31	72	–
Cc1cc(F)ccc1NS(=O)(=O)c1cc(-c2c(C)noc2C)ccc1C	–	–	–	Ratio IC50 (Homo sapiens [4]): 4.9; IC50 [5]: 1500 nM
